Reference: US20230279246A1, “MOLECULE-CONTAINING SURFACES AND METHODS OF PREPARATION THEREOF” (University of Durham, priority 2020, published 2023)

Tested on: Gram-negative Escherichia coli BW25113
Experiment: Antibacterial testing of coated substrates, CFU plate counting
Settings: relative to untreated substrate; for Bacteria Loss/Log10 Reduction E. coli (Gram-negative): coated PET film, 4 h at 30 °C, mean ± standard deviation; for Log10 Reduction E. coli: plasma poly(4-vinylaniline) series, title: polypropylene film, text: PET substrates, average ± standard deviation
Experimental: The prepared substrates with their respective coatings were subsequently tested for their antibacterial qualities against representative species of Gram-negative and Gram-positive bacteria. Gram-negative Escherichia coli BW25113 (CGSC 7636; rrnB3 ΔlacZ4787 hsdR514 Δ(araBAD)567 Δ(rhaBAD)568 rph-1) and Gram-positive Staphylococcus aureus (FDA209P, an MSSA strain; ATCC 6538P) bacteria cultures were prepared using autoclaved (Autoclave Vario 1528, Dixons Ltd.) Luria-Bertani broth media (LB; L3022, Sigma-Aldrich Ltd., 2% w/v in Milli-Q® grade water). A 5 ml bacterial culture was grown from a single colony for 16 h at 37° C., and then 50 μL used to inoculate a sterile polystyrene cuvette (Catalogue No. 67.742, Sarstedt AG) containing 1 mL of LB Broth. The cuvette was covered with Parafilm (Cole-Parmer Ltd.) and then placed inside a shaking incubator (model Stuart Orbital Incubator S1500, Cole-Parmer Ltd.) set at 37° C. and 120 rpm. An optical density OD600nm=0.4 was verified using a UV-Vis spectrophotometer (model Jenway 6300, Cole-Parmer Ltd.) to obtain bacteria at the mid-log phase of growth.
Uncoated control samples were washed in absolute ethanol for 15 minutes and then dried under vacuum in order to make sure they were sterile and clean. Sterile microtubes (1.5 mL, Sarstedt AG) were loaded with the untreated, or coated substrates. Next, 100 μL of the prepared bacterial culture was placed onto each substrate (so that the microorganisms could interact with one side of the surface), and left to incubate (model Bacterial Incubator 250, LMS Ltd.) for 4 hours at 30° C. Next, 900 μL of autoclaved Luria-Bertani broth media was pipetted into each microtube and vortexed (model Vortex-Genie 2, Scientific Industries Inc.) in order to recover the bacteria as a 10-fold dilution (10^−1). Further ten-fold serial dilutions were undertaken to provide 10^−2, 10^−3, 10^−4, 10^−5 and 10^−6 samples. Colony-forming unit (CFU) plate counting was performed by placing 10 μL drops from each diluted sample onto autoclaved Luria-Bertani Agar solid plates (EZMix™ powder, dust free, fast dissolving fermentation medium, L7533, Sigma-Aldrich Ltd.) and incubated (model Bacterial Incubator 250, LMS Ltd.) for 16 hours at 30° C. The number of colonies visible at each dilution were then counted. All tests were performed in triplicate.
Gram-negative Escherichia coli BW25113 (CGSC 7636; rrnB3 ΔlacZ4787 hsdR514 Δ(araBAD)567 Δ(rhaBAD)568 rph-1) and Gram-positive Staphylococcus aureus (FDA209P, an MSSA strain; ATCC 6538P) bacteria cultures were prepared using autoclaved (Autoclave Vario 1528, Dixons Ltd.) Luria-Bertani broth media (LB; L3022, Sigma-Aldrich Ltd., 2% w/v in grade water). A 5 ml bacterial culture was grown from a single colony for 16 h at 37° C., and then 50 μL used to inoculate a sterile polystyrene cuvette (Part No. 67.742, Sarstedt AG) containing 1 mL of LB Broth. The cuvette was covered with Parafilm (Cole-Parmer Ltd.) and then placed inside a shaking incubator (model Stuart Orbital Incubator S1500, Cole-Parmer Ltd.) set at 37° C. and 120 rpm to allow the bacteria to grow until an optical density OD600nm=0.4 was measured using a UV-Vis spectrophotometer (model Jenway 6300, Cole-Parmer Ltd.) which corresponded to the mid-log phase growth of bacteria.
Antibacterial testing was performed within 24 h of fabricating the coatings. Uncoated control samples were cleaned and sterilized by washing in absolute ethanol for 15 min and drying under vacuum. Each uncoated or coated substrate piece was placed aseptically inside a sterile microtube (1.5 mL, Sarstedt AG) so that the microorganisms could interact with one side of the surface. Next, 100 μL of the prepared bacterial culture was pipetted onto each substrate. In practice, the porous substrates absorbed the liquid so that the entire 15 mm×15 mm area of the samples was permeated by the bacterial suspension.

| Compound | Bacteria Loss/Log10 Reduction E. coli (Gram-negative) | Bacteria Loss/Log10 Reduction E. coli (Gram-negative) (listed as cinnamaldehyde) | Log10 Reduction E. coli (listed as Cinnamaldehyde-only) | Log10 Reduction E. coli (listed as cinnamaldehyde-only) | Bacteria Loss/Log10 Reduction E. coli (Gram-negative) (listed as Tannic acid-only) |
| --- | --- | --- | --- | --- | --- |
| O=C/C=C/c1ccccc1 [Cinnamaldehyde, trans-cinnamaldehyde] | 0.12 ± 0.07 Log10 Reduction | very small antibacterial effect | 0.12 ± 0.07 Log10 Reduction | very small effect | – |
| O=C(OC[C@H]1O[C@@H](OC(=O)c2cc(O)c(O)c(OC(=O)c3cc(O)c(O)c(O)c3)c2)[C@H](OC(=O)c2cc(O)c(O)c(OC(=O)c3cc(O)c(O)c(O)c3)c2)[C@@H](OC(=O)c2cc(O)c(O)c(OC(=O)c3cc(O)c(O)c(O)c3)c2)[C@@H]1OC(=O)c1cc(O)c(O)c(OC(=O)c2cc(O)c(O)c(O)c2)c1)c1cc(O)c(O)c(OC(=O)c2cc(O)c(O)c(O)c2)c1 [Tannic Acid, tannic acid] | 0.00 Log10 Reduction | – | – | – | no antibacterial activity |
